Laboratory results published in patent US6627760B1, “Amorphous compound” (AstraZeneca AB, priority 2001, dated 2003).

Columns and labels:
[1] = Glass transition temperature by Thermal Mechanical Analysis (TMA); format: physicochemical; conditions: heating rate 10° C./min, 30-160° C.
Procedure: The method involves compressing 140 mg of material in a punch and die (3 mm) to 2 KN. The compressed pellet was then placed on the TMA and the 1.1 mm probe placed on the top face. A heating rate of 10° C./min was used and the sample was heated from 30-160° C.

[2] = Glass transition temperature by Differential Scanning Calorimetry (DSC); format: physicochemical; conditions: dry amorphous lisinopril
Procedure: Differential Scanning Calorimetry (DSC) was performed on approximately 0.5-3 mg sample, using a Mettler DSC820 instrument, according to standard methods, for example those described in Hohne et al. (1996) Differential scanning Calorimetry, Springer, Berlin.

[3] = cited from earlier work

| glass transition temperature by TMA [1] | glass transition temperature (Tg) by DSC [2] | Structure (SMILES) | effective half-life of accumulation ([3]; multiple dosing) | time to peak serum concentrations ([3]; oral administration) |
| --- | --- | --- | --- | --- |
| 129 °C | 125 °C | NCCCC[C@H](NC(CCc1ccccc1)C(=O)O)C(=O)N1CCC[C@H]1C(=O)O (stereo partly drawn) [amorphous lisinopril, (S)-1-[N^2-(1-carboxy-3-phenylpropyl]-L-lysyl]-L-proline] | – | – |
| – | – | NCCCC[C@H](NC(CCc1ccccc1)C(=O)O)C(=O)N1CCC[C@H]1C(=O)O (stereo partly drawn) [lisinopril, (S)-1-[N^2-(1-carboxy-3-phenylpropyl]-L-lysyl]-L-proline] | about 12.6 hours | ≤ 7 h |
